Test results published in patent publication US11420970B1 (NOVARTIS AG, priority 2019, dated 2022).

Target: NSD2 [1-1365] (Homo sapiens (Human), UniProt O96028)
Assay: LC-MS/MS-based NSD2 enzymatic assay (SAH production)
Format: biochemical
Details: NSD2 biochemical activity, class symbols; read-out: NSD2 IC50
Protocol: LC-MS/MS-Based NSD2 Enzymatic Assay
This assay employed LC-MS/MS technology to monitor the SAH production from the NSD2 enzymatic reaction. The enzymatic reaction was performed in white proxiplate plus 384-well microplate (Perkin Elmer). The reaction mixture (10 μL) were composed of 8 nM NSD2 [1-1365], […] SAM (USB, 10601) and 400 nM nucleosome (purified from mouse liver) in reaction buffer (20 mM Tris-HCl, pH at 8.0, 0.01% Tween 20, 10 mM MgCl2, 50 mM NaCl, 1 mM DTT, 1 mM TCEP (pH7.5)). After 90 min incubation at room temperature, 3 μL quenching solution containing 2.5% TFA with 320 nM d4-SAH was added to stop the reaction.
For the inhibition assay, compound solutions were transferred into the wells by Mosquito™ (TTP LabTech). The inhibition assays were carried out by preincubating various concentrations of the inhibitor with 5 uL reaction mixture containing 16 nM NSD2 [1-1365] and 2 uM SAM (USB, 10601) in reaction buffer. After 20 min preincubation, 5 uL solution containing 800 nM nucleosome (purified from mouse liver) in reaction buffer was added to initiate the reaction. The reaction was stopped by 3 μL quenching solution containing 2.5% TFA with 320 nM d4-SAH after 90 min.
The SAH production from the enzymatic assays were monitored by LC-MS/MS on an API 4000 triple quadrupole mass spec with Turbolon Spray (Applied Biosystem) coupled with Prominenece UFLC(Shimazu). Liquid chromatography was performed on a Chromolith FastGradient HPLC column (RP-18e, 25-2 mm, from Merck) at a flow rate of 0.8 ml/min. The column was connected directly to the turbo ion electrospray operating in the positive-ion mode. Mobile phase A is 0.1% FA and 2% methanol in water and mobile phase B is 0.1% FA in ACN. Injection volume was 3 μl and the autosampler was kept at 4 degree. SAH and d4-SAH were simultaneously monitored. Data were acquired and processed by Analyst software.
To quantify the formed SAH, d4-SAH was added as internal standard (IS). A series of SAH (Sigma, A9384) solution at varying concentration (1-500 nM in reaction buffer) was mixed with quenching solution mentioned above. Then LC-MS/MS was carried out on API 4000 LC/MS/MS system to detect both SAH and d4-SAH. The plot of SAH peak area/IS peak area vs SAH concentration was used to generate the normalization factor of SAH. The SAH production from real enzymatic reaction was derived from the standard curve of SAH. The down-limit of our system for the detection of SAH is around 1-2 nM, and the linear range can reach up to 500 nM.

Sequence of NSD2 [1-1365] (O96028 whole entry): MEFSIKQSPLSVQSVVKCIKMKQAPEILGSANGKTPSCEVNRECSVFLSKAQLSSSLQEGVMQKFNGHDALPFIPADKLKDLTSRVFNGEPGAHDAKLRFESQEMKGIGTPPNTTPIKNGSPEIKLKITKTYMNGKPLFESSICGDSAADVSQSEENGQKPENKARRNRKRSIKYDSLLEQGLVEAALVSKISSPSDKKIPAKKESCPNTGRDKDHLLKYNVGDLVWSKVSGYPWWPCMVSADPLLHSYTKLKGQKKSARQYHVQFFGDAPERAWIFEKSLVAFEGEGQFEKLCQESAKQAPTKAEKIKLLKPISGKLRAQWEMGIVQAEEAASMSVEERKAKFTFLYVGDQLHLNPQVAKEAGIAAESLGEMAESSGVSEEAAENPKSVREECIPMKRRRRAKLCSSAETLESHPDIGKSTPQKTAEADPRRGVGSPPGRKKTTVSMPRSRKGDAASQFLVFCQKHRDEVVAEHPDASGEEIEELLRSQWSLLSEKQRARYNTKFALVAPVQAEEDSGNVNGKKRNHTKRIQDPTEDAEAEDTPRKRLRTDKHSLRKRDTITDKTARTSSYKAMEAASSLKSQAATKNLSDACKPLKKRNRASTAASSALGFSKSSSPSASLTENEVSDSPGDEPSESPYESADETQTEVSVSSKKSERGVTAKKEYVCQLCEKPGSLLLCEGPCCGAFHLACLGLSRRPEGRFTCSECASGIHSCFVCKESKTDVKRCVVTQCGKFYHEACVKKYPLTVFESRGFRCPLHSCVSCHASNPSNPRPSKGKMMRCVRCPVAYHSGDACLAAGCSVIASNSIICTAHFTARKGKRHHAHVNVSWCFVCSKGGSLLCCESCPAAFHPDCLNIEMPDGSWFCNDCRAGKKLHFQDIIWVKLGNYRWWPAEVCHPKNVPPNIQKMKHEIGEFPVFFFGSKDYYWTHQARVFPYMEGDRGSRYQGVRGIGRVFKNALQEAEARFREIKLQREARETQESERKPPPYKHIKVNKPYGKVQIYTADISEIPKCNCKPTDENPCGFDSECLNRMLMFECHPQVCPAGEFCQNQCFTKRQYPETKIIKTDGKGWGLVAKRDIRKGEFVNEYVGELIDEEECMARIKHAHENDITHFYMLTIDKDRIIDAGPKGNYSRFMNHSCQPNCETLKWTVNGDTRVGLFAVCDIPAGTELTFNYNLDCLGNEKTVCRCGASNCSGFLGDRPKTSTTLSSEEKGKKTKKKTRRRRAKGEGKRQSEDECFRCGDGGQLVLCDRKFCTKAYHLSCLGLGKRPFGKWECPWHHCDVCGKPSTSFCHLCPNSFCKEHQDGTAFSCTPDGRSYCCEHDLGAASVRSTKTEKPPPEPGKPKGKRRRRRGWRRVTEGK

`Nc1ncnc2c1ncn2Cc1cc(-c2ccc(F)c(F)c2)ncc1N1CCC[C@](N)(C(=O)N2CCCC2)C1` [Example 84, (R)-(3-amino-1-(4-((6-amino-9H-purin-9-yl)methyl)-6-(3,4-difluorophenyl)pyridin-3-yl)piperidin-3-yl)(pyrrolidin-1-yl)methanone] and `COC(=O)C[C@@]1(N)CCCN(c2cnc(-c3cccc(F)c3)cc2Cn2cnc3c(N)ncnc32)C1` [Example 73, methyl (S)-2-(3-amino-1-(4-((6-amino-9H-purin-9-yl)methyl)-6-(3-fluorophenyl)pyridin-3-yl)piperidin-3-yl)acetate] fall in the same range of IC50: 10 to 1000 nM for the first, 10 to 1000 nM for the second.

First: Nc1ncnc2c1ncn2Cc1cc(-c2ccc3c(c2)CCO3)ncc1N1CC[C@@H](F)[C@@H](N)C1 [Example 14, 9-((5-((3S,4R)-3-amino-4-fluoropiperidin-1-yl)-2-(2,3-dihydrobenzofuran-5-yl)pyridin-4-yl)methyl)-9H-purin-6-amine]
Second: Cc1cc(C(F)F)c(F)cc1-c1cc(Cn2cnc3c(N)ncnc32)c(N2CCC[C@](N)([C@@H](O)C(F)F)C2)cn1 [Example 129, (R)-1-((R)-3-amino-1-(4-((6-amino-9H-purin-9-yl)methyl)-6-(4-(difluoromethyl)-5-fluoro-2-methylphenyl)pyridin-3-yl)piperidin-3-yl)-2,2-difluoroethan-1-ol]
The IC50 of the first is higher: 10 to 1000 nM for the first, 1 to 10 nM for the second. The second is the more potent here.

`COc1ccc(-c2ncc(N3CCC[C@](N)([C@H](O)C(F)F)C3)c(Cn3cnc4c(N)ncnc43)c2F)c(F)c1` [Example 135, (S)-1-((R)-3-amino-1-(4-((6-amino-9H-purin-9-yl)methyl)-5-fluoro-6-(2-fluoro-4-methoxyphenyl)pyridin-3-yl)piperidin-3-yl)-2,2-difluoroethan-1-ol] was tested, and the IC50 was 10 to 1000 nM.

Same assay, conditions: read-out: NSD2 IC50

Compared with `Cn1ccc([C@@]2(N)CCCN(c3cnc(-c4ccc(F)c(F)c4)cc3Cn3cnc4c(N)ncnc43)C2)n1` [Example 275, (R)-9-((5-(3-amino-3-(1-methyl-1H-pyrazol-3-yl)piperidin-1-yl)-2-(3,4-difluorophenyl)pyridin-4-yl)methyl)-9H-purin-6-amine], `Nc1ncnc2c1ncn2Cc1cc(-c2ccc(F)c(F)c2)ncc1N1CCCC(N)(C(F)CF)C1` (stereo not drawn) [Example 287, 9-((5-(3-amino-3-(1,2-difluoroethyl)piperidin-1-yl)-2-(3,4-difluorophenyl)pyridin-4-yl)methyl)-9H-purin-6-amine] is higher in IC50: 1 to 10 nM for the first, 10 to 1000 nM for the second. The first is the more potent here.

Compared with `Nc1nccc2c1ncn2Cc1cc(N2CCC2)ncc1N1CCCC(N)(c2cccc(Cl)n2)C1` (stereo not drawn) [Example 265, 1-((5-(3-amino-3-(6-chloropyridin-2-yl)piperidin-1-yl)-2-(azetidin-1-yl)pyridin-4-yl)methyl)-1H-imidazo[4,5-c]pyridin-4-amine], `CCn1ccc([C@@]2(N)CCCN(c3cnc(C4CC4)cc3Cn3cnc4c(N)nccc43)C2)n1` [Example 276, (R)-1-((5-(3-amino-3-(1-ethyl-1H-pyrazo1-3-yl)piperidin-1-yl)-2-cyclopropylpyridin-4-yl)methyl)-1H-imidazo[4,5-c]pyridin-4-amine] is lower in IC50: > 1000 nM for the first, 10 to 1000 nM for the second. The second is the more potent here.

`Nc1ncnc2c1ncn2Cc1cc(-c2ccc(F)c(F)c2)ncc1N1CCCC(N)(C(F)C(F)F)C1` (stereo not drawn) [Example 300, 9-((5-(3-amino-3-(1,2,2-trifluoroethyl)piperidin-1-yl)-2-(3,4-difluorophenyl)pyridin-4-yl)methyl)-9H-purin-6-amine] and `Nc1ncnc2c1ncn2Cc1cc(-c2ccc(F)cc2)ncc1N1CCCC(N)(c2ccc(F)cn2)C1` (stereo not drawn) [Example 189, 9-((5-(3-amino-3-(5-fluoropyridin-2-yl)piperidin-1-yl)-2-(4-fluorophenyl)pyridin-4-yl)methyl)-9H-purin-6-amine] fall in the same range of IC50: 10 to 1000 nM for the first, 10 to 1000 nM for the second.

`CCc1cncc([C@@]2(N)CCCN(c3cnc(-c4ccc(F)cc4)cc3Cn3cnc4c(N)ncnc43)C2)n1` [Example 250, (R)-9-((5-(3-amino-3-(6-ethylpyrazin-2-yl)piperidin-1-yl)-2-(4-fluorophenyl)pyridin-4-yl)methyl)-9H-purin-6-amine] showed an IC50 of 10 to 1000 nM.
